One molecule from US9758559B2, “Short peptides derived from VDAC1, compositions and methods of use thereof” (B.G. NEGEV TECHNOLOGIES AND APPLICATIONS LTD., AT …, priority 2013, dated 2017) can be followed below.

Where a SMILES comes first, the peptide text is derived from it. [ ]: non-standard residue; d: D form.

Experiment [1] concerns glioblastoma U-87 cells. The experiment is described as follows: Mitochondrial membrane potential analysis (TMRM, FACS). In kind it is cell-based, human. The conditions noted are these: 3 h incubation. The procedure:
U-87 cells were incubated with the indicated concentrations of D-Δ1-14N-Ter-Antp (SEQ ID NO:9), washed with PBS, incubated with or without the potentiometric fluorescent dye TMRM (200 nM, 20 min), washed with PBS and subjected to FACS analysis. FCCP, allowing for Δψ dissipation, served as a control.
VDAC1 is a key component in regulating the energy production of the cell. It is known that cancer cells are characterized by elevated energy demand. The effects of D-Δ(1-14) N-Ter-Antp on the mitochondrial inner membrane polarization and cellular ATP level were examined using glioblastoma U-87 cells. U-87 cells were incubated for 3 h with the various concentrations of D-Δ1-14N-Ter-Antp or with FCCP (10 μM, control for depolarization) for 1 h.

For experiment [2], the system named is CLL-derived lymphocytes. The experiment is described as follows: Cell death of CLL-derived lymphocytes (PBMCs of CLL patients), PI staining and FACS. In kind it is cell-based, human. The conditions noted are these: 90 min incubation, PI staining, FACS, read-out: IC50, induction of cell death, CLL. The procedure: PBMCs were isolated from venous blood of the CLL patients by Ficoll-Paque PLUS (GE Healthcare, Israel) density gradient centrifugation, as follows. Venous blood (10-20 ml) was drawn from CLL patients with satisfying diagnostic criteria for CLL or from normal adult donors. Blood was collected into heparin tubes and was diluted 1:1 with balance solution composed of two stock solutions, A (1% D-glucose, 50 mM CaCl2, 0.98 mM MgCl2, 5.4 mM KCl and 0.145 M Tris-HCl, pH 7.6) and B (0.14 M NaCl) in a 1:9 ratio. The resulting mix was carefully layered on Ficoll-Paque Plus (10 ml of diluted blood:15 ml Ficoll) in 50 ml conical tubes. The tubes were centrifuged at 400×g (with minimal acceleration and deceleration) and 18-20° C. for 40 min. […] Cells were counted by a Countess Automated Cell Counter (Invitrogen).
PBMCs (4×10^5 or 8×10^5 cells/sample) were incubated in 200 μl serum-free medium with the examined peptide for 90 min at room temperature and centrifuged (500×g, 5 min) Cell death was analyzed by PI staining and flow cytometer (Beckton-Dickinson) and BD Cell Quest Pro software. Apoptotic cell death was also analyzed by PI and annexin V-FITC staining (Zaid H et al. 2005. 12:751-760), and by acridine orange and ethidium bromide staining and confocal microscopy (Olympus 1×81). […]

For experiment [3], the system named is rat glioblastoma cells (C6). The experiment is described as follows: Cell death of C6 cells, PI staining and flow cytometry. The format is cell-based. The conditions noted are these: 6 h, serum-free medium, PI-positive cells. As for the experimental part:
(§1) The efficacy of the peptide comprising amino acids […] of the N-terminal domain of VDAC1, synthesized with D-amino acids (all D-stereomeric peptide) conjugated to the Antp sequence also synthesized from D-amino acids as a CPP (D-Δ(1-14) N-Ter-Antp, SEQ ID NO:9) was further examined for its activity of inducing cell death with brain tumor derived cell lines. Human primary glioblastoma cells (U-87), human neuroblastoma cells (SH-SY5Y) and rat glioblastoma cells (C6) were incubated (4×10^5 cells) for 6 h in a serum-free-medium containing different concentrations of D-Δ1-14N-Ter-Antp (SEQ ID NO:9). The previously disclosed LP4 peptide conjugated to Tf (Tf-D-LP4 peptide, SEQ ID NO:20) was used as a reference of activity. At the end of the incubation time the cells were stained with PI and the level of cell death, reflected by the percentage of PI-positive cells, was determined by flow cytometry.
A general note: Flow cytometry measures light scatter and fluorescence of single cells or particles in a stream.

Experiment [4] concerns human neuroblastoma cells (SH-SY5Y). The experiment is described as follows: Cell death of SH-SY5Y cells, PI staining and flow cytometry. The format is cell-based. The conditions noted are these: 6 h, serum-free medium, PI-positive cells. The procedure: as §1
The subject of experiment [5] is Human primary glioblastoma cells (U-87). The experiment is described as follows: Cell death of U-87 cells, PI staining and flow cytometry. In kind it is cell-based. The conditions noted are these: 6 h, serum-free medium, PI-positive cells; read-out: IC50, cell death, U87. As for the experimental part: as §1

A word on the IC50: it is the concentration at which inhibition is half-maximal. `CC[C@@H](C)[C@@H](NC(=O)[C@@H](CCCCN)NC(=O)[C@H](NC(=O)[C@@H](CCC(N)=O)NC(=O)[C@@H](CCCNC(=N)N)NC(=O)[C@@H](CC(C)C)NC(=O)CNC(=O)[C@@H](Cc1ccccc1)NC(=O)CNC(=O)[C@@H](Cc1ccc(O)cc1)NC(=O)CNC(=O)[C@@H](CCCCN)NC(=O)[C@H](NC(=O)[C@@H](Cc1ccccc1)NC(=O)[C@H](NC(=O)[C@@H](CC(=O)O)NC(=O)[C@H](N)CCCNC(=N)N)C(C)C)[C@H](C)O)[C@H](C)CC)C(=O)N[C@H](Cc1c[nH]c2ccccc12)C(=O)N[C@H](Cc1ccccc1)C(=O)N[C@H](CCC(N)=O)C(=O)N[C@H](CC(N)=O)C(=O)N[C@H](CCCNC(=N)N)C(=O)N[C@H](CCCNC(=N)N)C(=O)N[C@H](CCSC)C(=O)N[C@H](CCCCN)C(=O)N[C@H](Cc1c[nH]c2ccccc12)C(=O)N[C@H](CCCCN)C(=O)N[C@H](CCCCN)C(=O)O` [D-Δ(1-14) N-Ter-Antp, ALL D-RDVFTKGYGFGL RQIKIWFQNRRMKWKK] (H-[dR][dD][dV][dF][dT][dK]G[dY]G[dF]G[dL][dR][dQ][dI][dK][dI][dW][dF][dQ][dN][dR][dR][dM][dK][dW][dK][dK]-OH): the “mitochondrial inner membrane polarization” value in experiment [1] is listed as “induced mitochondrial inner membrane depolarization”. For the same molecule, the IC50 turned out to be 1300 ± 100 nM in experiment [2], 5300 nM in experiment [3], 2050 nM in experiment [4] and 3750 nM in experiment [5].
